Like-named read-outs stand apart in the source and are kept apart here.
Experiments:
[1] = molecular target: T1, rat histamine H3 receptor (Rattus norvegicus, UniProt Q9QYN8); test: Rat H3 radioligand binding ([3H]-N-alpha-methylhistamine, SPA)
T1 construct: encoding the entire 445-amino-acid rat histamine H3 receptor; expressed in transfected cells; membrane preparation
Procedure, shortened: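 SPA-bead binding assay using [3H]-N-alpha-methylhistamine (approximately 1 nM final) with test compounds from 0.01 nM to 30 μM. Rat H3 receptor membranes came from stably transfected CHO-A3 cells; incubation ran 4 h at room temperature, in the dark, in Tris pH 7.4 buffer with MgCl2 and BSA. Clobenpropit (10 μM) gave non-specific binding.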

human H3 receptor = molecular target: T2, human H3 receptor (Homo sapiens, UniProt Q9Y5N1); test: Human H3 radioligand binding ([3H]-N-alpha-methylhistamine, SPA)
T2 construct: expressed in transfected cells
Procedure, shortened: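 Compounds (0.01 nM-30 μM) competed with approximately 1 nM [3H]-N-alpha-methylhistamine for human H3 receptor in membranes of stably transfected CHO cells, 10 μg protein per well, in Tris-HCl pH 7.4/MgCl2/BSA buffer for 4 h at room temperature. Bound radioligand measured by scintillation proximity; 10 μM clobenpropit gave non-specific binding.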

[2] = Table A, rat H3 binding, read-out: Rat Ki
[3] = Table A, human H3 binding, read-out: Human Ki
[4] = Rat H3 binding, Table B, Examples 136-362, read-out: rat H3 binding Ki
[5] = Human H3 binding, Table B, Examples 136-362, read-out: hum H3 binding Ki

T2 sequence (Q9Y5N1 whole entry): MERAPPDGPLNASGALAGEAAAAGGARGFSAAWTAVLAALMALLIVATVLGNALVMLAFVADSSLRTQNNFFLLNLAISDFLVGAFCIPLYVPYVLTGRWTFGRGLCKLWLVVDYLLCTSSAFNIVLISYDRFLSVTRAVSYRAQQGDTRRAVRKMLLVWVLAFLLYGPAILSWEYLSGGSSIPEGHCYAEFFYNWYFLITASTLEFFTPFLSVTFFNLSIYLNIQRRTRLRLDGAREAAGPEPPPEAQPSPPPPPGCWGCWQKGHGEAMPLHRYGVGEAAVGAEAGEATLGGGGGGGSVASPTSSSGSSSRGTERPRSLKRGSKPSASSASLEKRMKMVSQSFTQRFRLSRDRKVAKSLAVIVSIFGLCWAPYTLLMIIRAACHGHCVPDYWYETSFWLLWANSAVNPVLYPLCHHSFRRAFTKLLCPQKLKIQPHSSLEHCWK
T1 sequence (Q9QYN8 whole entry): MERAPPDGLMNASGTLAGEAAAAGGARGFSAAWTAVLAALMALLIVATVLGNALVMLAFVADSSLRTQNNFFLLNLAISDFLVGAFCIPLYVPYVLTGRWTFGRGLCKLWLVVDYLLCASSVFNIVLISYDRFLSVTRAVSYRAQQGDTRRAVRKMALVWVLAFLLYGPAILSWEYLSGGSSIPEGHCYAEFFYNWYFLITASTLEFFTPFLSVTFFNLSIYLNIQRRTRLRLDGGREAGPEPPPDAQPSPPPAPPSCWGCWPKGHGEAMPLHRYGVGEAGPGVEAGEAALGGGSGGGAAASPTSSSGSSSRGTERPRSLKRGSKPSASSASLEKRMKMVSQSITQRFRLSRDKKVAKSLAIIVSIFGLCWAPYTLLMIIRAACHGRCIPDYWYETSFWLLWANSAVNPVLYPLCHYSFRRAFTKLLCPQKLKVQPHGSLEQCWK

Row | Compound | Ki [1, 2] [nM] | Ki (human H3 receptor; [3]) [nM] | melting point [°C] | Ki [1, 4] [nM] | Ki (human H3 receptor; [5]) [nM]
1 | O=C1OCCN1c1ccc2c(c1)COC1(CCN(C3CCC3)CC1)O2 [Example 77] | < 200 | < 200 | 165 to 168 | – | –
2 | O=C1CCCN1c1ccc2c(c1)COC1(CCN(C3CCC3)CC1)O2 [Example 78] | 200 to 1000 | < 200 | 187 to 188 | – | –
3 | CN1CCN(c2ccc3c(c2)COC2(CCN(C4CCC4)CC2)O3)C1=O [Example 82] | < 200 | < 200 | 180 to 181 | – | –
4 | CN(C)C(=O)c1cn(-c2ccc3c(c2)COC2(CCN(C4CCC4)CC2)O3)c2ccccc12 [Example 83] | < 200 | < 200 | 100 to 110 | – | –
5 | OCc1cn(-c2ccc3c(c2)COC2(CCN(C4CCC4)CC2)O3)c2ccccc12 [Example 84] | < 200 | < 200 | 138 to 141 | – | –
6 | CN(C)C(=O)c1cccc2c1ccn2-c1ccc2c(c1)COC1(CCN(C3CCC3)CC1)O2 [Example 85] | < 200 | < 200 | 76 to 80 | – | –
7 | CNC(=O)c1cn(-c2ccc3c(c2)COC2(CCN(C4CCC4)CC2)O3)cc1C [Example 86] | < 200 | < 200 | 149 to 153 | – | –
8 | Cc1cn(-c2ccc3c(c2)COC2(CCN(C4CCC4)CC2)O3)cc1CO [Example 87] | < 200 | < 200 | 133 to 135 | – | –
9 | O=C(c1ccc(-c2ccc3c(c2)OC2(CCN(C4CCC4)CC2)O3)cc1)N1CCCC1 [Example 90] | 200 to 1000 | < 200 | 176.8 to 177.3 | – | –
10 | CCOc1ccc(-c2ccc3c(c2)OC2(CCN(C4CCC4)CC2)OC3)cn1 [Example 95] | > 1000 | > 1000 | 54 | – | –
11 | O=C(c1cccc(-c2ccc3c(c2)OC2(CCN(C4CCC4)CC2)OC3)c1)N1CCOCC1 [Example 96] | 200 to 1000 | 200 to 1000 | 61 | – | –
12 | O=C(c1ccc(-c2ccc3c(c2)OC2(CCN(C4CCC4)CC2)OC3)cc1)N1CCOCC1 [Example 97] | 200 to 1000 | > 1000 | 55 | – | –
13 | O=C1OCCN1c1ccc2c(c1)CCC1(CCN(C3CCC3)CC1)O2 [Example 119] | < 200 | < 200 | 186 to 188 | – | –
14 | O=C1CCN1c1ccc2c(c1)CCC1(CCN(C3CCC3)CC1)O2 [Example 120] | < 200 | < 200 | 195 to 197 | – | –
15 | CN1CCN(c2ccc3c(c2)CCC2(CCN(C4CCC4)CC2)O3)C1=O [Example 121] | < 200 | < 200 | 228 to 230 | – | –
16 | N#Cc1ccc(Nc2ccc3c(c2)COC2(CCN(C4CCC4)CC2)O3)cc1 [Example 122] | < 200 | < 200 | 55 to 60 | – | –
17 | N#Cc1cccc(Nc2ccc3c(c2)COC2(CCN(C4CCC4)CC2)O3)c1 [Example 123] | < 200 | < 200 | 55 to 60 | – | –
18 | c1ccc(Nc2ccc3c(c2)COC2(CCN(C4CCC4)CC2)O3)cc1 [Example 124] | < 200 | < 200 | 52 to 57 | – | –
19 | N#Cc1ccccc1Nc1ccc2c(c1)COC1(CCN(C3CCC3)CC1)O2 [Example 125] | < 200 | < 200 | 54 to 58 | – | –
20 | c1ccc(Nc2ccc3c(c2)COC2(CCN(C4CCC4)CC2)O3)nc1 [Example 126] | < 200 | < 200 | 159 to 161 | – | –
21 | c1cnc(Nc2ccc3c(c2)COC2(CCN(C4CCC4)CC2)O3)nc1 [Example 127] | < 200 | < 200 | 55 to 58 | – | –

Row | Compound | Ki [1, 2] [nM] | Ki (human H3 receptor; [3]) [nM] | melting point [°C] | Ki [1, 4] [nM] | Ki (human H3 receptor; [5]) [nM]
22 | N#Cc1cnc(Nc2ccc3c(c2)COC2(CCN(C4CCC4)CC2)O3)s1 [Example 128] | < 200 | < 200 | 217 to 218 | – | –
23 | c1cc(Nc2ccc3c(c2)COC2(CCN(C4CCC4)CC2)O3)ncn1 [Example 129] | < 200 | < 200 | 170 to 171 | – | –
24 | CNC(=O)c1ccc(Nc2ccc3c(c2)COC2(CCN(C4CCC4)CC2)O3)nc1 [Example 130] | < 200 | < 200 | 211 to 213 | – | –
25 | CNC(=O)c1ccc(-c2ccc3c(n2)COC2(CCN(C4CCC4)CC2)O3)cc1F [Example 133] | < 200 | < 200 | 172 to 173 | – | –
26 | CNC(=O)c1ccc(-c2ccc3c(c2)CC2(CCN(C4CCC4)CC2)O3)cc1 [Example 134, 1′-Cyclobutyl-spirobenzofuran-2(3H)-4′-piperidine-(5-(4-methylaminocarbamoylphenyl))] | < 200 | < 200 | 197 to 198 | – | –
27 | CS(=O)(=O)c1ccc(-c2ccc3c(c2)CC2(CCN(C4CCC4)CC2)O3)cc1 [Example 135, 1′-Cyclobutyl-spirobenzofuran-2(3H)-4′-piperidine-(5-(4-methylsulfonylphenyl))] | < 200 | < 200 | > 25 | – | –
28 | c1cnc(Nc2ccc3c(c2)COC2(CCN(C4CCC4)CC2)O3)cn1 [Example 136] | – | – | 57 to 61 | < 200 | < 200
29 | CNC(=O)N1CCN(c2ccc3c(c2)COC2(CCN(C4CCC4)CC2)O3)C(=O)C1 [Example 137] | – | – | 145 to 149 | 200 to 1000 | < 200
30 | Cc1ccccc1-c1ccc2c(c1)COC1(CCN(C3CCC3)CC1)O2 [Example 138] | – | – | 241 to 243 | < 200 | < 200
31 | O=C1C[C@@H](O)CN1c1ccc2c(c1)COC1(CCN(C3CCC3)CC1)O2 [Example 139] | – | – | 120 to 122 | < 200 | < 200
32 | O=C(NCCO)c1ccc(-c2ccc3c(c2)CCC2(CCN(C4CCC4)CC2)O3)cc1 [Example 140] | – | – | 145 to 147 | < 200 | < 200
33 | O=C(NCCO)c1ccc(-c2cc(F)c3c(c2)COC2(CCN(C4CCC4)CC2)O3)cc1 [Example 141] | – | – | 145 to 147 | < 200 | < 200
34 | CNC(=O)c1ccc(-c2cc(F)c3c(c2)COC2(CCN(C4CCC4)CC2)O3)cc1F [Example 142] | – | – | 156 to 158 | < 200 | < 200
35 | c1csc(-c2ccc3c(c2)COC2(CCN(C4CCC4)CC2)O3)n1 [Example 143] | – | – | 181 to 183 | < 200 | < 200
36 | CN(c1ccc2c(c1)COC1(CCN(C3CCC3)CC1)O2)c1ccccn1 [Example 144] | – | – | 216 to 220 | < 200 | < 200
37 | O=C1N(CCO)CCN1c1ccc2c(c1)COC1(CCN(C3CCC3)CC1)O2 [Example 146] | – | – | 152 to 155 | < 200 | < 200
38 | O=C(NCCO)c1ccc(-c2ccc3c(c2)CCC2(CCN(C4CCC4)CC2)O3)cc1F [Example 147] | – | – | 215 to 217 | < 200 | < 200
39 | O=C(c1ccc(-c2ccc3c(c2)COC2(CCN(C4CCC4)CC2)O3)cc1)N1CC[C@H](O)C1 [Example 148] | – | – | 178 to 181 | < 200 | < 200
40 | O=C(Nc1ccc2c(c1)COC1(CCN(C3CCC3)CC1)O2)c1cccnc1 [Example 149] | – | – | 215 to 217 | < 200 | < 200
41 | O=C(Nc1ccc2c(c1)COC1(CCN(C3CCC3)CC1)O2)c1ccncc1 [Example 150] | – | – | 180 to 182 | < 200 | < 200

Source: patent US8513232B2, “Substituted spirocyclic piperidine derivatives as histamine-3 (H3) receptor ligands” (Cephalon, Inc., priority 2008, dated 2013)
